Results as given in patent US10189863B2, “5,6-dihydro-4H-benzo[b]thieno-[2,3-d]azepine derivatives” (PULMOCIDE LIMITED, priority 2014, dated 2019).

Legend:
HEp2 cells = assay: Cell viability: resazurin assay; format: cell-based, human; conditions: 5 days
Method in brief: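 HEp2 cells in 5% FBS DMEM exposed to compounds (0.5% DMSO final) for 5 days at 37 °C/5% CO2, then resazurin added for 6 h; fluorescence read at 545/590 nm. Percent viability loss calculated versus 0.5% DMSO vehicle, with increases shown as negative values; CC50 taken from concentration-response curves where appropriate.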

hRSV/A/Long = assay: RSV infection in cotton rats: virus titre in lung (plaque assay); format: in vivo, Sigmodon hispidus cotton rats; conditions: intranasal
Description: (§1) RSV Infection in Cotton Rats
(§2) Male Sigmodon hispidus cotton rats between 6 and 8 weeks of age were infected with hRSV/A/Long (ATCC, Manassas, Va.; 10^5 pfu) in a volume of 0.1 mL of sucrose stabilizing media. Test compounds were dissolved in 100% DMSO (at 3.3, 10, 33 and 100 mg/mL), then diluted at 1:10 in isotonic saline to achieve 10% DMSO in all treatments. Formulations were then sonicated to produce suspensions. The resulting suspensions were administered intranasally (50 μL) by pipette 4 hr before infection (on day 0), and then on days 1, 2 and 3 post infection. Four days after RSV challenge, the animals were euthanised and the lungs were removed. The left lobe was used for viral titration via plaque assay and the lingular lobe for RSV/A/Long NS-1 qRT-PCR and cytokine qRT-PCR.
The supernatant of lung homogenates were diluted 1:10 and 1:100 in Eagle (E)-MEM. Confluent HEp2 monolayers in 24-well plates were infected in duplicate (50 μL of sample per well) starting with undiluted (neat) samples followed by diluted homogenates. After incubation for 1 hr (37° C./5% CO2) wells were overlaid with 0.75% methylcellulose medium and plates replaced in the 37° C. incubator. After incubation (for 4 days), the overlay was removed, the cells fixed with 0.1% crystal violet stain (for 1 hr) and then rinsed and air-dried. Plaques were counted and viral titers were expressed as plaque forming units per gram (pfu·g^−1) of tissue.

RANTES gene expression = assay: RSV infection in cotton rats: RANTES gene transcripts in lung (qRT-PCR); format: in vivo, Sigmodon hispidus cotton rats
Description: as §1, §2
Total RNA was also extracted from homogenized lung tissue (RNeasy purification kit; Qiagen) and a sample (1 μg) was used to prepare cDNA using QuantiTect Reverse Transcription Kit (Qiagen). For real-time PCR reactions (RSV NS-1 and RANTES genes) the QuantiFast SYBR® Green PCR Kit (Qiagen) was used in a final volume of 25 μL, with final primer concentrations of 0.5 μM. […] Baseline cycles and cycle threshold (Ct) were calculated by the iQ5 software in the PCR Base Line Subtracted Curve Fit mode. […] The mRNA levels were expressed as the geometric mean±SEM for all animals in a group.

[1] = Drug Conc 10 mg/mL, day 4, LOQ 2.3

Cc1cnc(N2CC3(CCOCC3)C2)c(C(=O)Nc2ccc(C(=O)N3CCc4cc(C(=O)Nc5c(C)cccc5F)sc4-c4ccccc43)cc2)c1 [Example 5, N-(2-Fluoro-6-methylphenyl)-6-(4-(5-methyl-2-(7-oxa-2-azaspiro[3.5]nonan-2-yl)nicotinamido)benzoyl)-5,6-dihydro-4H-benzo[b]thieno[2,3-d]azepine-2-carboxamide]
CC50 (HEp2 cells): > 14 µM | Virus titre in lung, Geometric mean (hRSV/A/Long; Drug Conc 0.33 mg/mL, day 4): 4.7 log, PFU/lung | Virus titre in lung, Median (hRSV/A/Long; Drug Conc 0.33 mg/mL, day 4): 4.7 log, PFU/lung | Virus titre in lung, Median (hRSV/A/Long; Drug Conc 1.0 mg/mL, day 4): 4.5 log, PFU/lung | Virus titre in lung, Median (hRSV/A/Long; Drug Conc 3.3 mg/mL, day 4, LOQ 2.3): <2.3^2 log, PFU/lung | Virus titre in lung, Geometric mean (hRSV/A/Long; [1]): <2.3^2 log, PFU/lung | Virus titre in lung, Median (hRSV/A/Long; [1]): <2.3^2 log, PFU/lung | Effect on RANTES transcripts in lung (in words) (RANTES gene expression): dose-dependent inhibition
